Measurements taken from patent US12172983B2, “EGFR inhibitors” (Blueprint Medicines Corporation, priority 2019, dated 2024).
Like-named read-outs stand apart in the source and are kept apart here.

Assays:
[1] = tested on: phosphorylation of EGFR (Tyr1068) in NCI-H1975 cell line that harbors the EGFR L858R T790M mutations; assay: NCI-H1975 pEGFR AlphaLISA assay; assay type: cell-based; conditions: 4-5 hours incubation, read-out: Ext pEGFR H1975
How it was run: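 Phospho-EGFR Tyr1068 AlphaLISA readout: lysates taken from compound-treated H1975 cells (L858R T790M EGFR) after a 4-5 h exposure at 37 °C. Cells had adhered overnight beforehand. IC50 derived by plotting % pEGFR inhibition against log compound concentration.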

[2] = target: T1, EGFR (L858R T790M C797S) (Homo sapiens, UniProt P00533, C797S/L858R/T790M); assay: Biochemical EGFR inhibition assay (Caliper mobility shift), EGFR LRTMCS mutant; conditions: inhibitory activity against EGFR LRTMCS mutant; apparent IC50; read-out: Ext Enz LRTMCS
T1 construct: purchased SignalChem E10-122VG
T1 sequence (P00533 25-1210 T790M/C797S/L858R): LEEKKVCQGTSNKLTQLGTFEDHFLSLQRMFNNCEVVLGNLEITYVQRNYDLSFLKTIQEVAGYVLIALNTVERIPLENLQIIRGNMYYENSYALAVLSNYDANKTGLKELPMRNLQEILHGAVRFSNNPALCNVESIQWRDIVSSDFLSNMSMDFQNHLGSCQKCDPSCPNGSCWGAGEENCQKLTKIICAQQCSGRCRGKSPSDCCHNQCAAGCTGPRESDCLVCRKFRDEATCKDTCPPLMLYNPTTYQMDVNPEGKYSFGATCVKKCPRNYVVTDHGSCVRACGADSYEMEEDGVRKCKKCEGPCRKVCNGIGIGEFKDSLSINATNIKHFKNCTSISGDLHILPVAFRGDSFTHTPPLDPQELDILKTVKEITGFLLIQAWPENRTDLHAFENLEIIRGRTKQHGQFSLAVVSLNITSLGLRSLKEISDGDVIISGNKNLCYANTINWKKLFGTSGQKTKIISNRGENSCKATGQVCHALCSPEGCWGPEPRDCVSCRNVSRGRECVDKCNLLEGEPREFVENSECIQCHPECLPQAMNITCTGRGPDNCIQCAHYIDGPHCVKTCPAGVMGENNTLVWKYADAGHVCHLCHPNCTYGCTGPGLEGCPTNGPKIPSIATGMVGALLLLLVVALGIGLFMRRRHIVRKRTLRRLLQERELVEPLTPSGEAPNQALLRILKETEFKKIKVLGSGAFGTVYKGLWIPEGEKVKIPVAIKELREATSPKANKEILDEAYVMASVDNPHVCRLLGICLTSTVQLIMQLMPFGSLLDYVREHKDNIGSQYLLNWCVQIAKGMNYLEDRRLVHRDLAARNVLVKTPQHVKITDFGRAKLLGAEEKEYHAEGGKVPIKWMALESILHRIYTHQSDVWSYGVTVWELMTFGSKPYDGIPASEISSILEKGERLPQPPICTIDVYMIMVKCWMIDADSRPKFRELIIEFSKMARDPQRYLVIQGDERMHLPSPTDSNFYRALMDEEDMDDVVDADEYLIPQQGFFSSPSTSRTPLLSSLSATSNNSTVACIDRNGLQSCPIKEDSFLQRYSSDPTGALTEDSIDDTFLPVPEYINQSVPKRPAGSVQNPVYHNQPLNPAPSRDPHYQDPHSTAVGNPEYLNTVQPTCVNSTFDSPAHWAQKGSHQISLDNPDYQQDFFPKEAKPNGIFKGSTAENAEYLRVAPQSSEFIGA
How it was run: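 Apparent IC50s were derived by plotting percent activity against the log of compound concentration. Activity was measured as phosphopeptide electrophoretically separated from substrate, after reactions at room temperature reached 10% to 20% phosphorylation and were halted with 35 mM EDTA.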

[3] = Homo sapiens, NCI-H1975, inhibition of phosphorylation of mutant EGFR in NCI-H1975 cells
[4] = inhibition of phosphorylation of mutant EGFR in NCI-H1975 cells

Row | SMILES | IC50 [1, 3] | IC50 [2] | IC50 [1, 4]
1 | CO[C@H]1CCN(c2nccc(Nc3cc4c(C(C)C)cnc(N5CC(CS(C)(=O)=O)C5)c4cn3)n2)C[C@H]1F [Compound 71, N-{2-[(3R,4S)-3-fluoro-4-methoxypiperidin-1-yl]pyrimidin-4-yl}-8-[3-(methanesulfonylmethyl)azetidin-1-yl]-5-(propan-2-yl)-2,7-naphthyridin-3-amine] | ≤ 10 nM | ≤ 15 nM | –
2 | CO[C@@H]1CCN(c2nccc(Nc3cc4cccc(N5C[C@H](CS(C)(=O)=O)[C@H]5C)c4cn3)n2)C[C@@H]1F [Compound 5, N-{2-[(3S,4R)-3-fluoro-4-methoxypiperidin-1-yl]pyrimidin-4-yl}-8-[(2R,3S)-3-(methanesulfonylmethyl)-2-methylazetidin-1-yl]isoquinolin-3-amine] | 10.1 to 20 nM | ≤ 15 nM | –
3 | CC(C)c1ccc(N2C[C@H](CS(C)(=O)=O)[C@H]2C)c2cnc(Nc3ccnc(N4CC[C@H](OCCO)C(F)(F)C4)n3)cc12 (single isomer, unassigned) [Compound 252] | ≤ 10 nM | 20.1 to 30 nM | –
4 | CO[C@H]1CCN(c2nccc(Nc3cc4c(C(C)C)ccc(N5C[C@H](CS(C)(=O)=O)[C@H]5C)c4cn3)n2)C[C@@H]1CO (single isomer, unassigned) [Compound 172, [(3R,4S)-1-[4-({8-[(2R,3S)-3-(methanesulfonylmethyl)-2-methylazetidin-1-yl]-5-(propan-2-yl)isoquinolin-3-yl}amino)pyrimidin-2-yl]-4-methoxypiperidin-3-yl]methanol or [(3S,4R)-1-[4-({8-[(2R,3S)-3-(methanesulfonylmethyl)-2-methylazetidin-1-yl]-5-(propan-2-yl)isoquinolin-3-yl}amino)pyrimidin-2-yl]-4-methoxypiperidin-3-yl]methanol] | 20.1 to 30 nM | ≤ 15 nM | –
5 | CN[C@H]1CCN(c2nccc(Nc3cc4c(C(C)C)ccc(N5C[C@H](CS(C)(=O)=O)[C@H]5C)c4cn3)n2)CC1(F)F (single isomer, unassigned) [Compound 310, N-{2-[(4R)-3,3-difluoro-4-(methylamino)piperidin-1-yl]pyrimidin-4-yl}-8-[(2R,3S)-3-(methanesulfonylmethyl)-2-methylazetidin-1-yl]-5-(propan-2-yl)isoquinolin-3-amine or N-{2-[(4S)-3,3-difluoro-4(methylamino)piperidin-1-yl]pyrimidin-4-yl}-8-[(2R,3S)-3-(methanesulfonylmethyl)-2-methylazetidin-1-yl]-5-(propan-2-yl)isoquinolin-3-amine] | – | ≤ 15 nM | ≤ 10 nM
6 | CC(C)c1ncc(N2C[C@H](CS(C)(=O)=O)[C@H]2C)c2cnc(Nc3ccnc(N4CC[C@](C)(O)[C@H](F)C4)n3)cc12 (single isomer, unassigned) [Compound 136] | 10.1 to 20 nM | ≤ 15 nM | –
7 | CO[C@H]1CCN(c2nccc(Nc3cc4c(C(C)C)cnc(N5C[C@H](CS(C)(=O)=O)[C@H]5C)c4cn3)n2)C[C@H]1F [Compound 131, N-{2-[(3R,4S)-3-fluoro-4-methoxypiperidin-1-yl]pyrimidin-4-yl}-8-[(2R,3S)-3-(methanesulfonylmethyl)-2-methylazetidin-1-yl]-5-(propan-2-yl)-2,7-naphthyridin-3-amine] | ≤ 10 nM | ≤ 15 nM | –
8 | CO[C@H]1CCN(c2nccc(Nc3cc4c(C(C)C)cnc(N5C[C@H](CS(C)(=O)=O)[C@H]5C)c4cn3)n2)C[C@@H]1O (single isomer, unassigned) [Compound 106, (3S,4S)-1-[4-({8-[(2R,3S)-3-(methanesulfonylmethyl)-2-methylazetidin-1-yl]-5-(propan-2-yl)-2,7-naphthyridin-3-yl}amino)pyrimidin-2-yl]-4-methoxypiperidin-3-ol or (3R,4R)-1-[4-({8-[(2R,3S)-3-(methanesulfonylmethyl)-2-methylazetidin-1-yl]-5-(propan-2-yl)-2,7-naphthyridin-3-yl}amino)pyrimidin-2-yl]-4-methoxypiperidin-3-ol] | ≤ 10 nM | ≤ 15 nM | –
9 | CC(C)c1ccc(N2CC(CS(C)(=O)=O)C2)c2cnc(Nc3ccnc(N4CC[C@H](O)[C@H](C)C4)n3)cc12 (single isomer, unassigned) [Compound 20, (3R,4S)-1-[4-({8-[3-(methanesulfonylmethyl)azetidin-1-yl]-5-(propan-2-yl)isoquinolin-3-yl}amino)pyrimidin-2-yl]-3-methylpiperidin-4-ol or (3S,4R)-1-[4-({8-[3-(methanesulfonylmethyl)azetidin-1-yl]-5-(propan-2-yl)isoquinolin-3-yl}amino)pyrimidin-2-yl]-3-methylpiperidin-4-ol] | – | 15.1 to 20 nM | 30.1 to 50 nM
10 | COCCO[C@H]1CCN(c2nccc(Nc3cc4c(C(C)C)ccc(N5CC(CS(C)(=O)=O)C5)c4cn3)n2)C[C@H]1O (racemic) [Compound 226, (3R,4S)-1-[4-[[5-isopropyl-8-[3-(methylsulfonylmethyl)azetidin-1-yl]-3-isoquinolyl]amino]pyrimidin-2-yl]-4-(2-methoxyethoxy)piperidin-3-ol and (3S,4R)-1-[4-[[5-isopropyl-8-[3-(methylsulfonylmethyl)azetidin-1-yl]-3-isoquinolyl]amino]pyrimidin-2-yl]-4-(2-methoxyethoxy)piperidin-3-ol] | 30.1 to 50 nM | 30.1 to 100 nM | –
11 | CC(C)c1ccc(N2C[C@H](CS(C)(=O)=O)[C@H]2C)c2cnc(Nc3ccnc(N4CC[C@@H](OCCN(C)C)C(F)(F)C4)n3)cc12 (single isomer, unassigned) [Compound 304, N-{2-[(4R)-4-[2-(dimethylamino)ethoxy]-3,3-difluoropiperidin-1-yl]pyrimidin-4-yl}-8-[(2R,3S)-3-(methanesulfonylmethyl)-2-methylazetidin-1-yl]-5-(propan-2-yl)isoquinolin-3-amine or N-{2-[(4S)-4-[2-(dimethylamino)ethoxy]-3,3-difluoropiperidin-1-yl]pyrimidin-4-yl}-8-[(2R,3S)-3-(methanesulfonylmethyl)-2-methylazetidin-1-yl]-5-(propan-2-yl)isoquinolin-3-amine] | ≤ 10 nM | ≤ 15 nM | –
12 | CC(C)c1ccc(N2C[C@H](CS(C)(=O)=O)[C@H]2C)c2cnc(Nc3ccnc(N4CC[C@H](OCCN(C)C)[C@H](F)C4)n3)cc12 [Compound 253, N-{2-[(3R,4S)-4-[2-(dimethylamino)ethoxy]-3-fluoropiperidin-1-yl]pyrimidin-4-yl}-8-[(2R,3S)-3-(methanesulfonylmethyl)-2-methylazetidin-1-yl]-5-(propan-2-yl)isoquinolin-3-amine] | ≤ 10 nM | ≤ 15 nM | –
13 | CO[C@@H]1CCN(c2nccc(Nc3cc4c(C(C)C)cnc(N5C[C@H](CS(C)(=O)=O)[C@H]5C)c4cn3)n2)C[C@@H]1O (single isomer, unassigned) [Compound 105, (3S,4R)-1-[4-({8-[(2R,3S)-3-(methanesulfonylmethyl)-2-methylazetidin-1-yl]-5-(propan-2-yl)-2,7-naphthyridin-3-yl}amino)pyrimidin-2-yl]-4-methoxypiperidin-3-ol or (3R,4S)-1-[4-({8-[(2R,3S)-3-(methanesulfonylmethyl)-2-methylazetidin-1-yl]-5-(propan-2-yl)-2,7-naphthyridin-3-yl}amino)pyrimidin-2-yl]-4-methoxypiperidin-3-ol] | ≤ 10 nM | ≤ 15 nM | –
